Experimental data from patent US20260250318A1, “COMPOSITIONS AND METHODS FOR CROSSING THE BLOOD BRAIN BARRIER” (VOYAGER THERAPEUTICS, INC., priority 2022, published 2026).

Tests used:
Settings in all cases: synthetic library passage 3, intravenous, relative to wild-type AAV9
[1] = tested on: brain, spinal cord, and DRG of the NHPs; assay: NGS fold enrichment of synthetic library (passage 3) in NHPs, first cross-species screen; type: in vivo, cynomolgus macaques (Macaca fascicularis)
Outline: (§1)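 Passage-3 synthetic capsid library given intravenously […] to NHPs (2-4 years) and BALB/c or C57Bl/6 mice (n=3, 6-8 weeks). After e.g. 28 days, tissue RNA was RT-PCR amplified and NGS-sequenced; values are fold enrichment of each variant relative to wild-type AAV9.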

brain [2] = assay: NGS fold enrichment of synthetic library (passage 3) in BALB/c mice, first cross-species screen; type: in vivo
Outline: as §1

brain [3] = assay: NGS fold enrichment of synthetic library (passage 3) in C57Bl/6 mice, first cross-species screen; type: in vivo
Outline: as §1

[4] = RNA from spinal cord of NHPs, NGS
[5] = RNA from brain of BALB/c mice, NGS
[6] = RNA from brain of C57Bl/6 mice, NGS

Row | Sequence | Fold enrichment over AAV9 in the brain of NHPs ([1]; RNA NGS, brain of NHPs) | Fold enrichment over AAV9 in the spinal cord of NHPs ([1]; RNA NGS, spinal cord of NHPs) | Fold enrichment over AAV9 in the brain of Mice (BALB/c) (brain [2]; RNA NGS, brain of BALB/c mice) | Fold enrichment over AAV9 in the brain of Mice (C57Bl/6) (brain [3]; RNA NGS, brain of C57Bl/6 mice) | Fold enrichment over AAV9 in the brain of NHPs ([1]; RNA from brain of NHPs, NGS) | Fold enrichment over AAV9 in the spinal cord of NHPs [1, 4] | Fold enrichment over AAV9 in the brain of Mice (BALB/c) (brain [2]; [5]) | Fold enrichment over AAV9 in the brain of Mice (C57Bl/6) (brain [3]; [6])
1 | GLSWPSTSGQNQQT | 2.238 fold | 0.000 fold | 0.610 fold | 0.910 fold | – | – | – | –
2 | GSGQNQQARPLELT | 1.061 fold | 0.059 fold | 0.252 fold | 0.389 fold | – | – | – | –
3 | GSGQVHASQVNQKT | 1.049 fold | 0.503 fold | 0.767 fold | 0.855 fold | – | – | – | –
4 | GRGGSMAETQNQQT | 1.024 fold | 2.853 fold | 0.669 fold | 0.799 fold | – | – | – | –
5 | GSRTYQVSGQNQQT | – | – | – | – | 1.164 fold | 1.853 fold | 0.641 fold | 0.638 fold
6 | GSGQALSSSGNQQT | – | – | – | – | 1.351 fold | 6.860 fold | 0.931 fold | 0.894 fold
7 | GRAPTNLSGQNQQT | 1.118 fold | 0.687 fold | 0.169 fold | 0.757 fold | – | – | – | –
8 | GSGFSHSMGKNQQT | – | – | – | – | 1.188 fold | 9.809 fold | 0.611 fold | 1.381 fold
9 | GSGQNGHLSLKQQT | 2.362 fold | 1.896 fold | 0.270 fold | 0.718 fold | – | – | – | –
10 | GSRTLSNVGQNQQT | 1.640 fold | 3.219 fold | 0.542 fold | 0.617 fold | – | – | – | –
11 | GSGQNQQPSAFSKT | – | – | – | – | 1.220 fold | 4.906 fold | 0.754 fold | 1.309 fold
12 | GSGQNVSMQVNQQT | – | – | – | – | 1.341 fold | 0.000 fold | 0.251 fold | 0.357 fold
13 | GVAFIGSSGQNQQT | 1.043 fold | 0.000 fold | 0.648 fold | 0.744 fold | – | – | – | –
14 | GFSSAVHSGQNQQT | 1.502 fold | 1.234 fold | 0.210 fold | 0.218 fold | – | – | – | –
15 | GSGQNQQTSVGFRT | 1.077 fold | 3.737 fold | 0.534 fold | 0.648 fold | – | – | – | –
16 | GSGQMSDVHGNQQT | – | – | – | – | 1.346 fold | 7.172 fold | 0.548 fold | 0.408 fold

Row | Sequence | Fold enrichment over AAV9 in the brain of NHPs ([1]; RNA NGS, brain of NHPs) | Fold enrichment over AAV9 in the spinal cord of NHPs ([1]; RNA NGS, spinal cord of NHPs) | Fold enrichment over AAV9 in the brain of Mice (BALB/c) (brain [2]; RNA NGS, brain of BALB/c mice) | Fold enrichment over AAV9 in the brain of Mice (C57Bl/6) (brain [3]; RNA NGS, brain of C57Bl/6 mice) | Fold enrichment over AAV9 in the brain of NHPs ([1]; RNA from brain of NHPs, NGS) | Fold enrichment over AAV9 in the spinal cord of NHPs [1, 4] | Fold enrichment over AAV9 in the brain of Mice (BALB/c) (brain [2]; [5]) | Fold enrichment over AAV9 in the brain of Mice (C57Bl/6) (brain [3]; [6])
17 | GSGQARAHRGNQQT | 1.017 fold | 0.000 fold | 0.386 fold | 0.254 fold | – | – | – | –
18 | GSGIVTKLGQNQQT | – | – | – | – | 1.174 fold | 10.571 fold | 0.242 fold | 0.599 fold
19 | GSYGMAASGQNQQT | 3.817 fold | 10.052 fold | 0.829 fold | 1.274 fold | – | – | – | –
20 | GSGQEHRSLANQQT | 1.046 fold | 0.000 fold | 0.344 fold | 0.507 fold | – | – | – | –
21 | GSLVSQGAGQNQQT | 2.188 fold | 4.414 fold | 1.246 fold | 1.436 fold | – | – | – | –
22 | GSGQTRMPLANQQT | – | – | – | – | 1.296 fold | 0.790 fold | 0.273 fold | 0.447 fold
23 | GLHGMTLSGQNQQT | – | – | – | – | 1.226 fold | 3.552 fold | 0.338 fold | 0.470 fold
24 | GSNMGVPLGQNQQT | 2.049 fold | 2.448 fold | 0.420 fold | 0.334 fold | – | – | – | –
25 | GSGLGMSTGQNQQT | 3.110 fold | 5.499 fold | 0.660 fold | 0.458 fold | – | – | – | –
26 | GSIAMTSHGQNQQT | – | – | – | – | 1.178 fold | 1.435 fold | 0.438 fold | 0.551 fold
27 | GSDGKMHRGQNQQT | – | – | – | – | 1.227 fold | 0.000 fold | 0.776 fold | 1.826 fold
28 | GLSAEKSSGQNQQT | 1.047 fold | 7.203 fold | 0.303 fold | 0.629 fold | – | – | – | –
29 | GDMTRSSSGQNQQT | 1.075 fold | 0.802 fold | 1.038 fold | 1.145 fold | – | – | – | –
30 | GAGVHMVSGQNQQT | 1.987 fold | 6.488 fold | 0.791 fold | 1.055 fold | – | – | – | –
31 | GSGQNQQVIQGSNT | 2.521 fold | 8.778 fold | 0.810 fold | 0.935 fold | – | – | – | –
32 | GSGQLSVPYDNQQT | 1.521 fold | 0.000 fold | 0.111 fold | 0.622 fold | – | – | – | –
